Numbered stars: 1 amine (or outer) side, 2 acyl side, 3 side chain; on linkers, the order of the positions; unused ones are H or OH. Square brackets hold non-standard residues; d marks the D form. Side chains are listed from the residue outwards. * marks the point of attachment. C16 diacid = O=C(O)CCCCCCCCCCCCCCC(=O)*; γGlu = O=C(O)[C@H](CCC(=O)[*:2])N[*:1]; AEEA = NCCOCCOCC(=O)O; Aib = CC(C)(N)C(=O)O
Columns and labels:
Format in all cases: cell-based
[1] = target: T1, human amylin receptor (hAMYR3) (Homo sapiens, UniProt O60896+P30988); assay: Amylin receptor assay, method B (CRE-luciferase reporter, BHK cells)
T1 construct: host or cells: BHK cells (Hollex-1 line expressing hCTR(a) and CRE-Luc), further transfected with human RAMP3
Description: To assess how the activation of the receptors is potentially influenced by the presence of human serum albumin (HSA), the in vitro assays were performed in the absence of HSA and presence of 1% (w/v) HSA.
It is thus possible to measure hAMYR3 activity using a CRE-luciferase reporter gene introduced into Baby Hamster Kidney (BHK) cells co-expressing the hAMYR3.
The cell line was further transfected with human receptor modifying protein 3 (RAMP3) using standard methods.
After centrifugation, the cell pellet was resuspended and diluted to approximately 2.5-4.0×10^6 (2.5E+6 to 4.0E+6) cells/mL in Recovery™ Cell Culture Freezing Medium (Gibco, 12648-010). Cells were aliquoted and stored at −180° C. until use.
The assay buffer consisted of DMEM without phenol red (Gibco, 11880-028) supplemented with 1× GlutaMAX (Gibco, 35050-038), 10 mM HEPES (Gibco, 15630-056) and 1% (w/v) ovalbumin (Sigma, A5503) either with or without 0.1% (v/v) Pluronic F-68 (Gibco, 24040-032) and either with or without HSA (Sigma, A9511).
To perform the assay, hAMYR3 BHK Cre-Luc cells were thawed, washed once in PBS (Gibco 14190-094) and seeded in 40 μL growth medium in a white 384-well culture plate (PerkinElmer/Revvity, 6007688) at a cell density of 4.0×10^3 (4.0E+3) cells/well the day before the experiment. The plate was incubated over night at 37° C. in 5% CO2. […] Serial dilutions were then mixed in a new 96-well plate with equal volume (1:1:1 ratio) of assay buffer and either assay buffer without or with 3% HSA (Sigma, A-9511). Twenty microliters of the solution mix were transferred to the cells which previously were washed once with PBS (Gibco 14190-094). After a short centrifugation, the assay plates were incubated for 3 hours at 37° C. in 5% CO2 and let to equilibrated at room temperature for 10 minutes before the addition of 30 μL steadylite Plus™ PerkinElmer/Revvity, 6066759) per well. Plates were sealed and incubated at room temperature with gentle shaking for 30 minutes while protected from light. Luminescence was detected on a luminescence plate reader e.g., a Synergy 2 (BioTek).

[2] = target: T2, human GIP receptor (hGIPR) (Homo sapiens, UniProt P48546); assay: GIP receptor assay, method B (CRE-luciferase reporter, BHK cells, 384-well)
T2 construct: expressed in transfected cells
T2 sequence (P48546 22-466): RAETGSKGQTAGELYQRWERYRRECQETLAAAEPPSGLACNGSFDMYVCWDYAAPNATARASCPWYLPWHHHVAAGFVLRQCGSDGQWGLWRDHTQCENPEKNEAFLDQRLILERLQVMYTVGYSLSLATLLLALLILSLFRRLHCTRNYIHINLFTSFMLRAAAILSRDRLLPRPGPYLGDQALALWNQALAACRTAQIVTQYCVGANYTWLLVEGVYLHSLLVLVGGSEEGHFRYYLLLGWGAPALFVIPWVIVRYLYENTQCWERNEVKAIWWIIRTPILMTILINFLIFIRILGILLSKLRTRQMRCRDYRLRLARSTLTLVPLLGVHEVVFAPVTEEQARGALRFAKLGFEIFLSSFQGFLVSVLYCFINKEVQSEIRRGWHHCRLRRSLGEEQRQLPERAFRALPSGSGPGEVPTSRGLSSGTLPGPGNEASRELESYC

[3] = target: T3, human GLP-1 receptor (hGLP-1R) (Homo sapiens, UniProt P43220); assay: GLP-1 receptor assay, method B (CRE-luciferase reporter, BHK cells, 384-well)
T3 construct: expressed in transfected cells
Description: Cells at approximately 80-90% confluence were washed once in PBS (Gibco 14190-094) and loosened from the cell flasks with Versene (Gibco, 15040-033). […] Cells were aliquoted and stored at −180° C. until use.
The assay buffer consisted of DMEM without phenol red (Gibco, 11880-028) supplemented with 1× GlutaMAX (Gibco, 35050-038), 10 mM HEPES (Gibco, 15630-056), 1% (w/v) ovalbumin (Sigma, A5503) and 0.1% (v/v) Pluronic F-68 (Gibco, 24040-032) either with HSA or without HSA (Sigma, A9511).
Serial dilutions were transferred to a 384-well assay plate (PerkinElmer/Revvity, 6007688) and mixed with an equal volume (10 μL) of assay buffer without or with 3% (w/v) HSA (Sigma, A-9511). Frozen stocks of hGLP-1R BHK Cre-Luc cells were thawed in a 37° C. water bath, washed once in PBS (Gibco 14190-094), diluted to 1.5×10^5 (1.5E+5) cells/mL in assay buffer (without HSA) and added (10 μL) to each well of the 384-well assay plate. After a short centrifugation, the assay plates were incubated for 3 hours at 37° C. in 5% CO2 and let to equilibrated at room temperature for 10 minutes before the addition of 30 μL steadylite Plus™ PerkinElmer/Revvity, 6066759) per well. Plates were sealed and incubated at room temperature with gentle shaking for 30 minutes while protected from light. Luminescence was detected on a luminescence plate reader e.g. a Synergy 2 (BioTek).

[4] = target: T2, human GIP receptor (hGIPR); assay: GIP receptor assay, method A (CRE-luciferase reporter, BHK cells); conditions: method A, absence of HSA; read-out: hGIPR Potency, no HSA, EC50
Procedure, shortened: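 Receptor activation was read as luciferase luminescence in hGIPR-expressing BHK CRE-Luc cells after 3 h compound exposure at 37 °C. Titrations (10-fold, 7 points, duplicate) ran in buffer containing 1% ovalbumin, with 1% HSA final or without; EC50 in pM fitted by four-parameter logistic model, Hill slope shared.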

[5] = target: T1, human amylin receptor (hAMYR3); assay: Amylin receptor assay, method A (CRE-luciferase reporter, BHK cells); conditions: method A, absence of HSA; read-out: hAMYR3 Potency, no HSA, EC50
[6] = target: T3, human GLP-1 receptor (hGLP-1R); assay: GLP-1 receptor assay, method A (CRE-luciferase reporter, BHK cells); conditions: method A, absence of HSA; read-out: hGLP-1R Potency, no HSA, EC50
Procedure, shortened: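 BHK cells expressing hGLP-1R with CRE-luciferase reporter, stimulated 3 h at 37 °C, 5% CO2, in phenol-red-free DMEM with 10 mM HEPES, 1% ovalbumin, 0.1% Pluronic F-68, without or with 1% (w/v) HSA. Receptor activation read as luminescence after 30 min with steadylite Plus.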

[7] = hAMYR3 Potency, 1% HSA, EC50, methods B, in the presence of 1% HSA
[8] = hGIPR Potency, 1% HSA, EC50, methods B, in the presence of 1% HSA
[9] = hGLP-1R Potency, 1% HSA, EC50, methods B, in the presence of 1% HSA

T3 sequence (P43220 24-463): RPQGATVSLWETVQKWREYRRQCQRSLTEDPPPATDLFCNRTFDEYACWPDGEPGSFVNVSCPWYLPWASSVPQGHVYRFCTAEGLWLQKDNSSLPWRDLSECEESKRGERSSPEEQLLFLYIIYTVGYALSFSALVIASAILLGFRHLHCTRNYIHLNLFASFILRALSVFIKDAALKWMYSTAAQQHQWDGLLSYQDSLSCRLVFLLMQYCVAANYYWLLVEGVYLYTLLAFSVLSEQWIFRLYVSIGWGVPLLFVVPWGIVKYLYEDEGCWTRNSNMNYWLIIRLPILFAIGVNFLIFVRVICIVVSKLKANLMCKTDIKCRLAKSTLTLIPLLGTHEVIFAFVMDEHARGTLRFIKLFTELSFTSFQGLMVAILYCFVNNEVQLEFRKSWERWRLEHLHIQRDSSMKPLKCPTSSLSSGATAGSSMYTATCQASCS
T1 sequence (P30988 25-474): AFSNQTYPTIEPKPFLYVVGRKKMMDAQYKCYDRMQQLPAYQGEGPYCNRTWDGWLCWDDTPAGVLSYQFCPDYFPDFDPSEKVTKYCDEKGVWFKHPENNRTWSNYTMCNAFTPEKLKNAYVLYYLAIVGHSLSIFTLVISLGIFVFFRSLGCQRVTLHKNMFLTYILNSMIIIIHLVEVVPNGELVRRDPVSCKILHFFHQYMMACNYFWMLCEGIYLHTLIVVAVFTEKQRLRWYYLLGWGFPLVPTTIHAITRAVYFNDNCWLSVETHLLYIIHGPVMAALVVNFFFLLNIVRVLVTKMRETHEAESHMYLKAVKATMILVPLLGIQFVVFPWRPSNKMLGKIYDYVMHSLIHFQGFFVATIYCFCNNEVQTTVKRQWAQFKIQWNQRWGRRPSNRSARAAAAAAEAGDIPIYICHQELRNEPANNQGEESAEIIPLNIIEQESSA
T1 sequence (O60896 24-148): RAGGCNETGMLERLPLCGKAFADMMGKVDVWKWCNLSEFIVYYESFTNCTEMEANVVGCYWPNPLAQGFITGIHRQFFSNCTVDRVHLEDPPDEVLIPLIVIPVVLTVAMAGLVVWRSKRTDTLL

CC[C@H](C)[C@H](NC(=O)[C@H](CCC(=O)O)NC(=O)[C@H](CCC(=O)O)NC(=O)[C@H](CC(C)C)NC(=O)[C@H](CC(C)C)NC(=O)[C@@H](NC(=O)[C@H](CO)NC(=O)[C@H](Cc1ccc(O)cc1)NC(=O)[C@H](CC(=O)O)NC(=O)[C@H](CO)NC(=O)[C@@H](NC(=O)[C@H](Cc1ccccc1)NC(=O)[C@@H](NC(=O)CNC(=O)[C@H](CCC(=O)O)NC(=O)C(C)(C)NC(=O)[C@@H](N)Cc1ccc(O)cc1)[C@@H](C)O)[C@@H](C)O)[C@@H](C)CC)C(=O)N[C@@H](C)C(=O)N[C@@H](C)C(=O)N[C@@H](CCCNC(=N)N)C(=O)N[C@@H](CCC(=O)O)C(=O)N[C@@H](Cc1ccccc1)C(=O)N[C@H](C(=O)N[C@@H](CCC(=O)O)C(=O)N[C@@H](Cc1c[nH]c2ccccc12)C(=O)N[C@@H](CC(C)C)C(=O)N[C@@H](CC(C)C)C(=O)N[C@@H](C)C(=O)NCC(=O)NCC(=O)N1CCC[C@H]1C(=O)N[C@@H](CO)C(=O)N[C@@H](CO)C(=O)N[C@@H](CCC(=O)O)C(=O)N[C@@H](C)C(=O)NCC(=O)N[C@@H](C)C(=O)N[C@@H](CO)C(=O)N[C@@H](CCC(N)=O)C(=O)N[C@@H](CC(C)C)C(=O)N[C@@H](CO)C(=O)N[C@H](C(=O)N[C@@H](C)C(=O)N[C@@H](CCC(N)=O)C(=O)N[C@H](C(=O)N[C@@H](CCC(N)=O)C(=O)N[C@@H](CCCNC(=N)N)C(=O)N[C@@H](CC(C)C)C(=O)N[C@@H](CO)C(=O)N[C@@H](C)C(=O)N[C@@H](CCC(=O)O)C(=O)N[C@@H](CC(C)C)C(=O)N[C@@H](Cc1c[nH]cn1)C(=O)N[C@@H](CCCCNC(=O)COCCOCCNC(=O)COCCOCCNC(=O)CC[C@H](NC(=O)CCCCCCCCCCCCCCCCCCC(=O)O)C(=O)O)C(=O)N[C@@H](CC(C)C)C(=O)N[C@@H](C)C(=O)N[C@H](C(=O)N[C@@H](CC(C)C)C(=O)N1CCC[C@H]1C(=O)N[C@@H](CCCNC(=N)N)C(=O)N[C@H](C(=O)N[C@@H](CCC(=O)O)C(=O)N[C@H](C(=O)NCC(=O)N[C@@H](CO)C(=O)NCC(=O)N[C@@H](CO)C(=O)N1CCC[C@H]1C(N)=O)[C@@H](C)O)[C@@H](C)O)[C@@H](C)O)[C@@H](C)O)[C@@H](C)O)[C@@H](C)CC [Compound 181]
EC50 ([1]; method B, absence of HSA, read-out: hAMYR3 Potency, no HSA, EC50): 0.00846 nM | EC50 ([2]; method B, absence of HSA, read-out: hGIPR Potency, no HSA, EC50): 0.00325 nM | EC50 ([3]; method B, absence of HSA, read-out: hGLP-1R Potency, no HSA, EC50): 0.0288 nM

CC[C@H](C)[C@H](NC(=O)[C@H](CCC(=O)O)NC(=O)[C@H](CCC(=O)O)NC(=O)[C@H](CC(C)C)NC(=O)[C@H](CC(C)C)NC(=O)[C@@H](NC(=O)[C@H](CO)NC(=O)[C@H](Cc1ccc(O)cc1)NC(=O)[C@H](CC(=O)O)NC(=O)[C@H](CO)NC(=O)[C@@H](NC(=O)[C@H](Cc1ccccc1)NC(=O)[C@@H](NC(=O)CNC(=O)[C@H](CCC(=O)O)NC(=O)C(C)(C)NC(=O)[C@@H](N)Cc1ccc(O)cc1)[C@@H](C)O)[C@@H](C)O)[C@@H](C)CC)C(=O)N[C@@H](C)C(=O)N[C@@H](C)C(=O)N[C@@H](CCCNC(=N)N)C(=O)N[C@@H](CCC(=O)O)C(=O)N[C@@H](Cc1ccccc1)C(=O)N[C@H](C(=O)N[C@@H](CCC(=O)O)C(=O)N[C@@H](Cc1c[nH]c2ccccc12)C(=O)N[C@@H](CC(C)C)C(=O)N[C@@H](CC(C)C)C(=O)N[C@@H](C)C(=O)NCC(=O)NCC(=O)N1CCC[C@H]1C(=O)N[C@@H](CO)C(=O)N[C@@H](CO)C(=O)NCC(=O)N[C@@H](C)C(=O)NCC(=O)N[C@@H](CCC(=O)O)C(=O)N[C@@H](C)C(=O)N1CCC[C@H]1C(=O)NCC(=O)N[C@@H](CCC(=O)O)C(=O)N[C@@H](C)C(=O)N1CCC[C@H]1C(=O)NCC(=O)N[C@@H](C)C(=O)N[C@@H](CO)C(=O)N[C@@H](Cc1c[nH]cn1)C(=O)N[C@@H](CC(C)C)C(=O)N[C@@H](CO)C(=O)N[C@H](C(=O)N[C@@H](C)C(=O)N[C@@H](CCC(N)=O)C(=O)N[C@H](C(=O)N[C@@H](CCC(N)=O)C(=O)N[C@@H](CCCNC(=N)N)C(=O)N[C@@H](CC(C)C)C(=O)N[C@@H](CO)C(=O)N[C@@H](C)C(=O)N[C@@H](CCC(=O)O)C(=O)N[C@@H](CC(C)C)C(=O)N[C@@H](Cc1c[nH]cn1)C(=O)N[C@@H](CCCCNC(=O)COCCOCCNC(=O)COCCOCCNC(=O)CC[C@H](NC(=O)CCCCCCCCCCCCCCCCCCC(=O)O)C(=O)O)C(=O)N[C@@H](CC(C)C)C(=O)N[C@@H](C)C(=O)N[C@H](C(=O)N[C@@H](CC(C)C)C(=O)N1CCC[C@H]1C(=O)N[C@@H](CCCNC(=N)N)C(=O)N[C@H](C(=O)N[C@@H](CCC(=O)O)C(=O)N[C@H](C(=O)NCC(=O)N[C@@H](CO)C(=O)NCC(=O)N[C@@H](CO)C(=O)N1CCC[C@H]1C(N)=O)[C@@H](C)O)[C@@H](C)O)[C@@H](C)O)[C@@H](C)O)[C@@H](C)O)[C@@H](C)CC [Compound 189]
EC50 [1, 7]: 1.21 nM | EC50 ([1]; hAMYR3 Potency, no HSA, EC50, method B, absence of HSA): 0.0127 nM | EC50 [2, 8]: 0.00918 nM | EC50 ([2]; hGIPR Potency, no HSA, EC50, method B, absence of HSA): 0.00318 nM | EC50 [3, 9]: 0.0819 nM | EC50 ([3]; hGLP-1R Potency, no HSA, EC50, method B, absence of HSA): 0.0269 nM

Y[Aib]EGTFTSDYSILLEEQAAREFIEWLLAGGPSK([AEEA-AEEA-γGlu-C16 diacid])GEASELSTAALGRLSAELHRLATLPRTETGSGSP-NH2 [Compound 18]
EC50 [4]: 0.00725 nM | EC50 [1, 7]: 1.3 nM | EC50 [2, 8]: 0.0201 nM | EC50 [3, 9]: 0.135 nM | EC50 [5]: 0.00393 nM | EC50 [6]: 0.0528 nM

From US20260174875A1 (Novo Nordisk A/S, priority 2023, published 2026)
